Results taken from patent publication US7928099B2, “Pyrimido [4,5-D] azepine derivatives as 5-HT2c agonists” (Pfizer Inc, priority 2007, dated 2011).
Counter-ions that a name gives are not always drawn.

Assays:
[1] = cited from earlier work; for bladder capacity: anaesthetized guinea-pig cystometry; for urethral EMG activity: anaesthetized guinea-pig urethral EMG model
[2] = conscious rats and monkeys; i.v., i.p., s.c. or i.m. administration; cited from earlier work
[3] = anaesthetized dog; cited from earlier work
[4] = man; cited from earlier work
[5] = target: T1, human recombinant 5-HT2c receptor (Homo sapiens, UniProt P28335); experiment: 3H-meselurgine radioligand binding SPA, membranes from Swiss 3T3 cells (Method 2); conditions: 3H-meselurgine displacement, Cheng-Prusoff; Swiss 3T3 membranes; read-out: Binding Affinity Ki
T1 construct: expressed in transfected cells; host or cells: CHO K1 (Chinese hamster ovary), stably transfected
T1 sequence (P28335 33-458): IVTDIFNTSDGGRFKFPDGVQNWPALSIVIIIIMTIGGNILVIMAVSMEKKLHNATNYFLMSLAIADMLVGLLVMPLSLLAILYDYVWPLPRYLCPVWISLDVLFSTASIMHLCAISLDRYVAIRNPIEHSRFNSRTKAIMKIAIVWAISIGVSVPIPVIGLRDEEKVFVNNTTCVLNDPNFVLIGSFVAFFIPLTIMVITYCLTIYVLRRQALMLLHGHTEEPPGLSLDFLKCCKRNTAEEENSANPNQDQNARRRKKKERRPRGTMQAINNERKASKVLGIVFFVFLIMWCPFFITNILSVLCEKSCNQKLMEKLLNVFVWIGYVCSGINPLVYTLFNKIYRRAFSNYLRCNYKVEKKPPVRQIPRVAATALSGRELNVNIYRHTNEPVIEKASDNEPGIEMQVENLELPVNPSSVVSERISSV
Procedure: The compounds of the invention were evaluated for biological activity by measuring the agonist affinity (EC50) and efficacy (Emax) at the human recombinant 5-HT2c receptor expressed in CHO K1 cells, using a fluorescent based Ca^2+ mobilisation assay format compatible with FLIPR technology (Method 1). Additionally, the binding activity of a compound was determined by measuring its affinity for the human recombinant 5-HT2c receptor membranes from Swiss 3T3 cells (Method 2).
The compounds were tested for biological activity by their ability to inhibit binding of the radioligand ^3H-meselurgine at the human recombinant 5-HT2C receptor expressed in the Swiss 3T3 cells using a scintillation proximity assay (SPA) technology.
Swiss 3T3 stably transfected with the 5-HT2C receptor were cultured under standard cell culture techniques. Specifically, cells were grown in 50 mL growth medium (Dulbecco's Modified Eagle's Medium (DMEM) culture media supplemented with 10% dialysed foetal calf serum (FCS), 2 mM penicillin/streptomycin and 20 μg/mL geneticin) in 225 cm^2 flasks at 37° C. and 5% CO2. Cells were grown to 60-80% confluency, harvested using trypsin-EDTA and pelleted by centrifugation for long-term storage at −80° C.
Cell pellets were thawed on ice and resuspended in 3 mL of membrane preparation buffer (see Media and Buffers for composition) per 1 mL of packed cell. The suspension was homogenised on ice for several 5 s intervals using a hand-held homogeniser. The homogenate was then centrifuged at 1,000 rpm for 5 min at 4° C.
The supernatants were then collected and retained. Initial cell & nuclei pellets (P1) were subsequently rehomogenised and centrifuged using the conditions cited above, and the supernatants collected and pooled with those retained from the first spin.
The pooled supernatants were centrifuged at 19,500 rpm for 45 min at 4° C., and the supernatants discarded. The pellets (P2) were then resuspended in 3 mL of membrane preparation buffer per 1 mL of the original packed cell volume. Protein concentrations were subsequently measured and the membrane suspension was finally frozen in aliquots of set volume and stored at −80° C. prior to use in assays.
For each batch of membrane used, optimal concentrations of Polylysine YSi SPA beads and membrane were determined. The assay free radioligand concentration was expressed as a percentage of the total free radioligand concentration to give an estimate of the radioligand depletion.
The affinity of ^3H-meselurgine for the human recombinant 5-HT2c receptor was determined for each membrane batch at the selected protein and bead concentrations. […] The mean KD for ^3H-meselurgine at a batch of membranes was determined from data from a minimum of three separate assays.
The required amount of membrane, was thawed on ice and added to a pre-determined volume of bead suspension in 50 mM HEPES buffer, pH 7.4. The beads were then pre-coupled by incubating the predetermined protein quantity per mg of bead on a roller 4° C. for 1 h. Subsequently, the bead/membrane complex was spun down at 1000 rpm for 5 min. The resulting pellet was resuspended in assay buffer at the specific concentration required for the final assay.
An aliquot of [^3H]-meselurgine stock was diluted in binding assay buffer to give a pre-determined final assay concentration less than the equilibrium dissociation constant (KD) value.
All test compounds were prepared at a concentration of 4 mM in 100% dimethyl sulphoxide (DMSO) from dry samples.
The same volume of assay buffer was added to specific wells of the plate to enable subsequent measurement of total radioligand binding. Furthermore, 5 μL of Mianserin at 25 μM (2.5 μM final assay concentration was subsequently added to pre-determined wells to determine non-specific binding (NSB).

[6] = target: T1, human recombinant 5-HT2c receptor; experiment: FLIPR fluorescent Ca2+ mobilisation agonist assay in CHO K1 cells (Method 1); format: cell-based; conditions: for Emax: CHO-K1, efficacy, percentage of mean maximal response to 10 μM 5-HT; for EC50: agonist affinity, FLIPR

Structure (SMILES)	bladder capacity [1]	urethral EMG activity [1]	penile erection [2]	urethral pressure [3]	proerectile activity [4]	Ki [5] [nM]	Emax [6] [%]	EC50 [6] [nM]
CCc1cc2c(ccc3cnn(C[C@H](C)N)c32)o1 [YM348]	doses related increases	doses related increases						
C[C@H](N)Cn1ccc2cc(F)c(Cl)cc21 [Ro-60-0175]	doses related increases	doses related increases	enhance penile erection	increased urethral pressure in a dose-dependent manner				
O=c1n(CCCN2CCN(c3cccc(Cl)c3)CC2)nc2ccccn12 [trazodone]					associated with proerectile activity			
Clc1cccc(N2CCNCC2)c1 [m-CPP]	doses related increases	doses related increases	enhance penile erection		associated with proerectile activity			
c1ccc(Cc2nc3c(c(NCCn4cccn4)n2)CCNCC3)cc1 [Example 27, 2-benzyl-N-[2-(1H-pyrazol-1-yl)ethyl]-6,7,8,9-tetrahydro-5H-pyrimido[4,5-d]azepin-4-amine hydrochloride]						25.4	35	57.2
CN(C)c1ncc2c(n1)CCNCC2 [Example 50, N,N-dimethyl-6,7,8,9-tetrahydro-5H-pyrimido[4,5-d]azepin-2-amine hydrochloride]						552	100	481
